Test results from patent US20220305019A1, “PARAXANTHINE-BASED COMPOSITIONS FOR PROMOTING WEIGHT LOSS” (Ingenious Ingredients, LP, priority 2021, published 2022).

Key:
Assay type in all cases: in vivo, human
[1] = Swagger visual analog scale (VAS) after oral ingestion, crossover, two participants; settings: 200 mg Caffeine
Protocol: (§1) All supplements were orally ingested with 8 fluid ounces of cold tap water. The order of administration for all interventions was randomized using a random allocation software to ensure randomization and to avoid order effects. After ingestion, participants completed all assessments in an identical fashion 30, 60, 90, 120, and 180 minutes after ingestion of their assigned supplement. All study visits took place between 0600-1000 hours. At least 72 hours of rest took place between each condition.

[2] = Confidence visual analog scale (VAS) after oral ingestion, crossover, two participants; set-up: Confidence (Visual Analog Scale) / Confidence VAS MEAN: scale not given here; settings: for Confidence (Visual Analog Scale) / Confidence VAS MEAN / Confidence VAS mean Δ vs. 100 mg PX / Confidence VAS mean Δ vs. PLA: 200 mg Caffeine
Protocol: as §1

[3] = Appetite visual analog scale (VAS) after oral ingestion, crossover, two participants; settings: 200 mg CA; for Appetite Visual Analog Scale MEAN: mean 30-180 min
Protocol: All supplements were orally ingested with 8 fluid ounces of cold tap water. The order of administration for all interventions was randomized using a random allocation software to ensure randomization and to avoid order effects. […] All study visits took place between 0600-1000 hours. At least 72 hours of rest will take place between each condition.

Cn1c(=O)c2c(ncn2C)n(C)c1=O [CA, caffeine, reference compound]
Swagger (Visual Analog Scale) ([1]; 30 min, person one): 64
Swagger (Visual Analog Scale) ([1]; 30 min, person two): 65
Swagger (Visual Analog Scale) ([1]; 60 min, person one): 56
Swagger (Visual Analog Scale) ([1]; 60 min, person two): 62
Swagger (Visual Analog Scale) ([1]; 90 min, person one): 51
Swagger (Visual Analog Scale) ([1]; 90 min, person two): 62
Swagger (Visual Analog Scale) ([1]; 120 min, person one): 61
Swagger (Visual Analog Scale) ([1]; 120 min, person two): 59
Swagger (Visual Analog Scale) ([1]; 180 min, person one): 44
Swagger (Visual Analog Scale) ([1]; 180 min, person two): 69
Swagger VAS mean Δ vs. 100 mg PX ([1]; person one): −31.0
Swagger VAS mean Δ vs. PLA ([1]; person one): −23.4
Swagger VAS MEAN ([1]; person two): 63.4
Swagger VAS mean Δ vs. 100 mg PX ([1]; person two): −10.0
Swagger VAS mean Δ vs. PLA ([1]; person two): +10.0
Confidence (Visual Analog Scale) ([2]; 30 min, person one): 80
Confidence (Visual Analog Scale) ([2]; 30 min, person two): 74
Confidence (Visual Analog Scale) ([2]; 60 min, person one): 91
Confidence (Visual Analog Scale) ([2]; 60 min, person two): 76
Confidence (Visual Analog Scale) ([2]; 90 min, person one): 71
Confidence (Visual Analog Scale) ([2]; 90 min, person two): 66
Confidence (Visual Analog Scale) ([2]; 120 min, person one): 80
Confidence (Visual Analog Scale) ([2]; 120 min, person two): 70
Confidence (Visual Analog Scale) ([2]; 180 min, person one): 90
Confidence (Visual Analog Scale) ([2]; 180 min, person two): 65
Confidence VAS MEAN ([2]; Average of both): 76.3
Confidence VAS MEAN ([2]; person one): 82.4
Confidence VAS mean Δ vs. 100 mg PX ([2]; person one): +0.4
Confidence VAS mean Δ vs. PLA ([2]; person one): +1
Confidence VAS MEAN ([2]; person two): 70.2
Confidence VAS mean Δ vs. 100 mg PX ([2]; person two): +0.2
Confidence VAS mean Δ vs. PLA ([2]; person two): −0.8
effect on confidence ([2]; 200 mg of CA): failed to increase confidence
reduction in appetite compared to placebo [3]: 2.4%
Appetite Visual Analog Scale ([3]; 30 min, person one): 70
Appetite Visual Analog Scale ([3]; 30 min, person two): 50
Appetite Visual Analog Scale ([3]; 60 min, person one): 100
Appetite Visual Analog Scale ([3]; 60 min, person two): 60
Appetite Visual Analog Scale ([3]; 90 min, person one): 100
Appetite Visual Analog Scale ([3]; 90 min, person two): 61
Appetite Visual Analog Scale ([3]; 120 min, person one): 100
Appetite Visual Analog Scale ([3]; 120 min, person two): 65
Appetite Visual Analog Scale ([3]; 180 min, person one): 100
Appetite Visual Analog Scale ([3]; 180 min, person two): 70
Appetite Visual Analog Scale MEAN ([3]; Average of both): 77.6
Appetite Visual Analog Scale MEAN ([3]; person one): 94.0
Appetite Visual Analog Scale MEAN ([3]; person two): 61.2
Appetite VAS mean Δ vs. 100 mg PX ([3]; person one): +65.0
Appetite VAS mean Δ vs. 300 mg PX ([3]; person one): +66.8
Appetite VAS mean Δ vs. PLA ([3]; person one): −0.2
Appetite VAS mean Δ vs. 100 mg PX ([3]; person two): −12.8
Appetite VAS mean Δ vs. 300 mg PX ([3]; person two): −2.8
Appetite VAS mean Δ vs. PLA ([3]; person two): −12.0
